Laboratory results: publication PMC6193120, “Substrate Specificity Analysis of Dihydrofolate/Dihydromethanopterin Reductase Homologs in Methylotrophic α-Proteobacteria” (Frontiers in Microbiology, 2018)

T1: M. extorquens AM1 DmrA-H4 (Methylorubrum extorquens, UniProt C5B2R8)
T1 sequence (C5B2R8 1-135): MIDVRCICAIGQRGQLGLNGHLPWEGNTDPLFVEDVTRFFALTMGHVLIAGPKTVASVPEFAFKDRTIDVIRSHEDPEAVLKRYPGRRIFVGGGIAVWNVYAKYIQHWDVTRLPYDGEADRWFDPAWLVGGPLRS

B1: H6-DfrA (Methylorubrum extorquens) (protein)
chain: MAQPRISLVAAIARNGVIGRDNSLAWRLSSDLKRFKALTMGKPILMGRKTWDSIGRPLPGRRSLVITRDRSLALSDVTVVHDWDEALAAAGDDELMVVGGAEIYRLALPHADRLHLTEVDAAPEGDAYFPPFDRSLFRETLREAHGPGERDEFAFQFVDLERLGSR
B2: H6-DfrB (Methylorubrum extorquens) (protein)
chain: MDVRLIAAIGRRGQLGLEGDMPWGRSFPDDLRRFRELTAGGIVLVGWRTWPTVERLQGTHGRRFVVDDVKLPPTGMLVRLQEPDASGTRDRPVWIAGGAKTYARYARFVDEFVVRRVPYDGPADTWMPDLLGTPEADRTDGPYTGRSPTDKQWRPGCRRLRDR
notes: megaplasmid-encoded

Assays:
Hni-DAGK-H6 = system: T2, Hni-DAGK-H6; assay: NADPH oxidation at […] nm, anaerobic; assay type: biochemical, Hyphomicrobium nitrativorans; conditions: 0.1 mM NADPH, pH 5.3, sodium acetate; H2SPT from partially oxidized Methanosarcina thermophila H4SPT fraction; read-out: KM(app)
T2 construct: gene dmrA

[1] = target: T1, M. extorquens AM1 DmrA-H4; assay: NADPH oxidation at […] nm, anaerobic; assay type: biochemical; conditions: 0.1 mM NADPH, pH 5.3, sodium acetate; H2SPT from partially oxidized Methanosarcina thermophila H4SPT fraction; read-out: KM(app)
Mno-DAGK-H6 = system: T3, Mno-DAGK-H6; assay: NADPH oxidation at […] nm, anaerobic; assay type: biochemical, Methylobacterium nodulans; conditions: 0.1 mM NADPH, pH 5.3, sodium acetate; H2SPT from partially oxidized Methanosarcina thermophila H4SPT fraction; read-out: KM(app)
T3 construct: gene dmrA

purified protein = substrate: Nc1nc2c(c(=O)[nH]1)N=C(CNc1ccc(C(=O)N[C@@H](CCC(=O)O)C(=O)O)cc1)CN2; assay: purified protein; assay type: biochemical, Methylorubrum extorquens; conditions: 100 μM NADPH, pH 6.8, room temperature

| Molecule | Km (Hni-DAGK-H6) [µM] | Km [1] [µM] | Km (Mno-DAGK-H6) [µM] | Km (purified protein) [µM] |
| --- | --- | --- | --- | --- |
| dihydrosarcinapterin | 102 ± 73 | 193 ± 71 | 695 ± 176 |  |
| B1 |  |  |  | 14 ± 3.0 |
| B2 |  |  |  | 18 ± 8.9 |
